# According to ChEMBL document CHEMBL1806418, “Azepanone-based inhibitors of human cathepsin S: optimization of selectivity via the P2 substituent” (Bioorg Med Chem Lett, 2011):
# Experiments:
# Procathepsin L [1] = molecular target: T1, Procathepsin L (Homo sapiens, UniProt P07711); experiment: Inhibition of human recombinant cathepsin L using Z-LR-AMC as substrate by fluorescence assay
# Cathepsin K [2] = molecular target: T2, Cathepsin K (Homo sapiens, UniProt P43235); experiment: Inhibition of human recombinant cathepsin K using z-LR-AFC as substrate by fluorescence assay
# T2 sequence (P43235 whole entry): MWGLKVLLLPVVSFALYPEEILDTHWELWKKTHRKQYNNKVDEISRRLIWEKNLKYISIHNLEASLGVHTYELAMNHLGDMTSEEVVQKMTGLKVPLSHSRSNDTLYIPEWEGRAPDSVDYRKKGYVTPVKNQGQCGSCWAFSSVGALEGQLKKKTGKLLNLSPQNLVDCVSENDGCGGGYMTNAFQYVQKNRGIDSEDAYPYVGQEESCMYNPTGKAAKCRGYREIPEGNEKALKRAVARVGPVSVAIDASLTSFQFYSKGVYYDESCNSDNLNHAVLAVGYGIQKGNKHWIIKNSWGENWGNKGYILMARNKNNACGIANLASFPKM
# Cathepsin S [3] = molecular target: T3, Cathepsin S (Homo sapiens, UniProt P25774); experiment: Inhibition of human recombinant cathepsin S using Ac-KQLR-AMC as substrate by fluorescence assay
# Cathepsin S [4] = molecular target: T3, Cathepsin S; experiment: Inhibition of cathepsin S in human Raji cells assessed as decrease in cell surface expression of MHC class 2/CLIP by flow cytometric analysis; type: cell-based
# Cathepsin K [5] = molecular target: T2, Cathepsin K; experiment: Inhibition of human cathepsin K using Z-Lys-Gln-Lys-Leu-Arg-AMC as substrate after 1 hr by fluorescence assay; details: read-out: Ki(app)
# Procathepsin L [6] = molecular target: T1, Procathepsin L; experiment: Inhibition of human cathepsin L using Z-Phe-Arg-AMC as substrate after 1 hr by fluorescence assay; details: read-out: Ki(app)
# Cathepsin S [7] = molecular target: T3, Cathepsin S; experiment: Inhibition of human cathepsin S using Z-Lys-Gln-Lys-Leu-Arg-AMC as substrate after 1 hr by fluorescence assay; details: read-out: Ki(app)
# T3 sequence (P25774 whole entry): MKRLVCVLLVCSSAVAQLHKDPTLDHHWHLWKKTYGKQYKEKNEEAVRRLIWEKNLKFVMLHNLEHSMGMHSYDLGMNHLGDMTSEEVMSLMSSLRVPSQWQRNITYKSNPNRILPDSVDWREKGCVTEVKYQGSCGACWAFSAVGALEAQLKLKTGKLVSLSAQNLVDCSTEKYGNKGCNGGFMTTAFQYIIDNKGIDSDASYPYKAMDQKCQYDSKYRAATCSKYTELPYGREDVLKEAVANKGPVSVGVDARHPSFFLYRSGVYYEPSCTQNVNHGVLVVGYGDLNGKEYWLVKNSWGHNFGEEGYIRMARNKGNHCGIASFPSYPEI
# T1 sequence (P07711 whole entry): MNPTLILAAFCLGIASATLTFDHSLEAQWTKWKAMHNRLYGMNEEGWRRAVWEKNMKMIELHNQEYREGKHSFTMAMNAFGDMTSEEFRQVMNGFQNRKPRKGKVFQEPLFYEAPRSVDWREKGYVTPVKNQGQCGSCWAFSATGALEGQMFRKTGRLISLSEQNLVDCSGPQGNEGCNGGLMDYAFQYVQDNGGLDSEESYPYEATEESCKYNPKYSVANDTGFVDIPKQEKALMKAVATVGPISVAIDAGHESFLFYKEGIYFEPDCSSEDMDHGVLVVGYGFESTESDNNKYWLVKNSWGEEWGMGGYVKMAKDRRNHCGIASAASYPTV
IC50 (Procathepsin L [1]) [nM],IC50 (Cathepsin K [2]) [nM],IC50 (Cathepsin S [3]) [nM],IC50 (Cathepsin S [4]) [nM],Ki (Cathepsin K [5]) [nM],Ki (Procathepsin L [6]) [nM],Ki (Cathepsin S [7]) [nM],SMILES
0.53,1,2.9,–,–,–,–,CC(C)C[C@H](NC(=O)c1ccco1)C(=O)N[C@H]1CC[C@@H](C)N(S(=O)(=O)c2ccccn2)CC1=O
22.4,11.2,< 0.4,–,–,–,–,C[C@@H]1CC[C@H](NC(=O)[C@H](CC2(C)CCCC2)NC(=O)c2ccco2)C(=O)CN1S(=O)(=O)c1ccccn1
4.8,27.7,0.76,–,–,–,–,C[C@@H]1CC[C@H](NC(=O)[C@H](CC2CCCC2)NC(=O)c2ccco2)C(=O)CN1S(=O)(=O)c1ccccn1
31.9,44.5,< 0.4,1400,–,–,–,C[C@@H]1CC[C@H](NC(=O)[C@H](CC2(C)CCCCC2)NC(=O)c2ccco2)C(=O)CN1S(=O)(=O)c1ccccn1
10.7,840,1.9,–,–,–,–,C[C@@H]1CC[C@H](NC(=O)[C@H](CCC2CCCC2)NC(=O)c2ccco2)C(=O)CN1S(=O)(=O)c1ccccn1
–,–,–,–,> 10000,–,–,O=C(N[C@@H](Cc1ccc2ccccc2c1)C(=O)N[C@H]1CCCN(S(=O)(=O)c2ccccn2)CC1=O)c1cccc2ccccc12
–,–,8.3,940,0.1,1.2,8.3,CC(C)C[C@H](NC(=O)c1cc2cc(OCCN3CCOCC3)ccc2o1)C(=O)N[C@H]1CCCN(C(=O)Cc2cccc(-c3ccccn3)c2)CC1=O
10,10,31.6,–,–,–,–,CC(C)C[C@H](NC(=O)c1ccco1)C(=O)N[C@H]1CC[C@@H](C)N(C(=O)c2ccccn2)CC1=O
< 0.4,28.2,< 0.4,–,–,–,–,C[C@@H]1CC[C@H](NC(=O)[C@H](CC2CCCCCC2)NC(=O)c2ccco2)C(=O)CN1S(=O)(=O)c1ccccn1
1,450,0.5,–,–,–,–,CC1CCC(C[C@H](NC(=O)c2ccco2)C(=O)N[C@H]2CC[C@@H](C)N(S(=O)(=O)c3ccccn3)CC2=O)CC1 (stereo not given in full)
429,263,1.5,3880,–,–,–,C[C@@H]1CC[C@H](NC(=O)[C@H](CC2(C)CCCCC2)NC(=O)c2ccco2)C(=O)CN1C(=O)c1ccccn1
1700,2300,37,–,–,–,–,C[C@@H]1CC[C@H](NC(=O)[C@@H](CC2(C)CCCCC2)NC(=O)c2ccco2)C(=O)CN1S(=O)(=O)c1ccccn1
4400,1900,101,–,–,–,–,C[C@@H]1CC[C@H](NC(=O)[C@@H](CC2(C)CCCC2)NC(=O)c2ccco2)C(=O)CN1S(=O)(=O)c1ccccn1
58.5,6200,1.2,–,–,–,–,C[C@@H]1CC[C@H](NC(=O)[C@H](CC2CCC(C)(C)CC2)NC(=O)c2ccco2)C(=O)CN1S(=O)(=O)c1ccccn1
11.5,4.7,1.3,4800,–,–,–,C[C@@H]1CC[C@H](NC(=O)[C@H](CC(C)(C)C)NC(=O)c2ccco2)C(=O)CN1S(=O)(=O)c1ccccn1
10.8,1100,0.58,–,–,–,–,C[C@@H]1CC[C@H](NC(=O)[C@H](CCC2CCCC2)NC(=O)N2CCOCC2)C(=O)CN1S(=O)(=O)c1ccccn1
1.2,40.5,0.5,1780,–,–,–,C[C@@H]1CC[C@H](NC(=O)[C@H](CC2CCCCC2)NC(=O)c2ccco2)C(=O)CN1S(=O)(=O)c1ccccn1
3.8,9,4.9,–,–,–,–,C[C@@H]1CC[C@H](NC(=O)[C@H](CC2=CCCC2)NC(=O)c2ccco2)C(=O)CN1S(=O)(=O)c1ccccn1
48.7,136,< 0.4,570,–,–,–,C[C@@H]1CC[C@H](NC(=O)[C@H](CC2(C)CCCCC2)NC(=O)N2CCOCC2)C(=O)CN1S(=O)(=O)c1ccccn1
139,174,1.5,–,–,–,–,C[C@@H]1CC[C@H](NC(=O)[C@H](CC23CCC(CC2)C3(C)C)NC(=O)N2CCOCC2)C(=O)CN1S(=O)(=O)c1ccccn1
